Values joined by “and” are separate entries in the source; they are usually repeats but may differ in a detail not shown here. Identical values can stand only once.
Assays:
[1] = Crystal, Calculated from knudsen effusion weight loss
[2] = molar enthalpy of vaporization or sublimation; conditions: 298.15 K; Crystal; Static calorimetry

CC(C)C1C(=O)NC(=O)NC1=O [5-isopropylbarbituric acid]
[1]
Conditions | vapor or sublimation pressure
369.16 K | 0.000115 kPa and 0.000107 kPa and 0.000106 kPa
371.12 K | 0.000138 kPa and 0.000135 kPa
373.08 K | 0.000167 kPa and 0.000169 kPa and 0.000166 kPa
375.16 K | 0.000204 kPa and 0.000202 kPa and 0.000216 kPa
377.12 K | 0.000254 kPa and 0.000251 kPa and 0.000257 kPa
379.09 K | 0.000314 kPa and 0.000311 kPa and 0.000303 kPa
381.16 K | 0.000371 kPa and 0.00037 kPa and 0.000389 kPa
383.11 K | 0.000461 kPa and 0.000453 kPa and 0.000465 kPa
385.09 K | 0.000559 kPa and 0.000555 kPa and 0.000554 kPa
387.15 K | 0.000674 kPa and 0.000675 kPa and 0.000708 kPa
389.13 K | 0.000839 kPa and 0.000843 kPa and 0.000844 kPa
391.11 K | 0.000998 kPa and 0.001017 kPa and 0.001009 kPa

Conditions | molar enthalpy [kcal/mol]
[2] | 29.9

Reference: the NIST ThermoML archive (doi:10.1016/j.tca.2015.12.007)
